Holding throughout (type): cell-based
The target of test [1] is T1, CaV2.2 (Homo sapiens, UniProt Q00975).
T1 construct: expressed in transfected cells; host or cells: HEK293
In words: VIPR optical membrane potential assay with electrical stimulation, CaV2.2. Particulars: Table 9, CaV 2.2 receptors. The method, boiled down: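 HEK293 cells stably expressing CaV2.2 stained with CC2-DMPE/DiSBAC2(3) voltage-sensitive dyes (10 μM final CC2-DMPE, 30 min, RT), then compound added and cells electrically stimulated for 3-5 s. Read-out: background-subtracted 460/580 nm emission ratio; response R=Rf/Ri (post- vs pre-stimulus ratio); antagonism seen as reduced response.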

For test [2], the target named is NaV1.8 (Homo sapiens, UniProt Q9Y5Y9). In words: VIPR optical membrane potential assay, NaV1.8 (other subtypes in an analogous mode). The following applies: Table 9, NaV 1.8 receptors. In short, it runs like this:
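Cells expressing the NaV subtype stained with coumarin and DiSBAC2(3) membrane-potential dyes, then incubated with test compound for 20-30 minutes. Depolarization evoked by sodium addback and read optically on VIPR; block measured as reduced membrane-potential response, with tetracaine as positive control.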

Test [3] deals with T2, NaV1.3 (Homo sapiens, UniProt Q9NY46).
T2 construct: expressed in transfected cells; host or cells: HEK293
In words: VIPR optical membrane potential assay with electrical stimulation, NaV1.3. Particulars: Table 9, NaV 1.3 receptors. The method, boiled down: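 HEK293 cells stably expressing NaV1.3, stained with CC2-DMPE (10 μM final) then DiSBAC2(3) with ABSC1, 30 min each at RT; compounds added with oxonol. Electrical stimulation for 3 s; 460/580 nm background-subtracted emission ratio Rf/Ri, normalised to tetracaine (positive) and untreated (negative) controls.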

A value given as a limit tells only on which side of the number the result lay.

T1 sequence (Q00975 whole entry): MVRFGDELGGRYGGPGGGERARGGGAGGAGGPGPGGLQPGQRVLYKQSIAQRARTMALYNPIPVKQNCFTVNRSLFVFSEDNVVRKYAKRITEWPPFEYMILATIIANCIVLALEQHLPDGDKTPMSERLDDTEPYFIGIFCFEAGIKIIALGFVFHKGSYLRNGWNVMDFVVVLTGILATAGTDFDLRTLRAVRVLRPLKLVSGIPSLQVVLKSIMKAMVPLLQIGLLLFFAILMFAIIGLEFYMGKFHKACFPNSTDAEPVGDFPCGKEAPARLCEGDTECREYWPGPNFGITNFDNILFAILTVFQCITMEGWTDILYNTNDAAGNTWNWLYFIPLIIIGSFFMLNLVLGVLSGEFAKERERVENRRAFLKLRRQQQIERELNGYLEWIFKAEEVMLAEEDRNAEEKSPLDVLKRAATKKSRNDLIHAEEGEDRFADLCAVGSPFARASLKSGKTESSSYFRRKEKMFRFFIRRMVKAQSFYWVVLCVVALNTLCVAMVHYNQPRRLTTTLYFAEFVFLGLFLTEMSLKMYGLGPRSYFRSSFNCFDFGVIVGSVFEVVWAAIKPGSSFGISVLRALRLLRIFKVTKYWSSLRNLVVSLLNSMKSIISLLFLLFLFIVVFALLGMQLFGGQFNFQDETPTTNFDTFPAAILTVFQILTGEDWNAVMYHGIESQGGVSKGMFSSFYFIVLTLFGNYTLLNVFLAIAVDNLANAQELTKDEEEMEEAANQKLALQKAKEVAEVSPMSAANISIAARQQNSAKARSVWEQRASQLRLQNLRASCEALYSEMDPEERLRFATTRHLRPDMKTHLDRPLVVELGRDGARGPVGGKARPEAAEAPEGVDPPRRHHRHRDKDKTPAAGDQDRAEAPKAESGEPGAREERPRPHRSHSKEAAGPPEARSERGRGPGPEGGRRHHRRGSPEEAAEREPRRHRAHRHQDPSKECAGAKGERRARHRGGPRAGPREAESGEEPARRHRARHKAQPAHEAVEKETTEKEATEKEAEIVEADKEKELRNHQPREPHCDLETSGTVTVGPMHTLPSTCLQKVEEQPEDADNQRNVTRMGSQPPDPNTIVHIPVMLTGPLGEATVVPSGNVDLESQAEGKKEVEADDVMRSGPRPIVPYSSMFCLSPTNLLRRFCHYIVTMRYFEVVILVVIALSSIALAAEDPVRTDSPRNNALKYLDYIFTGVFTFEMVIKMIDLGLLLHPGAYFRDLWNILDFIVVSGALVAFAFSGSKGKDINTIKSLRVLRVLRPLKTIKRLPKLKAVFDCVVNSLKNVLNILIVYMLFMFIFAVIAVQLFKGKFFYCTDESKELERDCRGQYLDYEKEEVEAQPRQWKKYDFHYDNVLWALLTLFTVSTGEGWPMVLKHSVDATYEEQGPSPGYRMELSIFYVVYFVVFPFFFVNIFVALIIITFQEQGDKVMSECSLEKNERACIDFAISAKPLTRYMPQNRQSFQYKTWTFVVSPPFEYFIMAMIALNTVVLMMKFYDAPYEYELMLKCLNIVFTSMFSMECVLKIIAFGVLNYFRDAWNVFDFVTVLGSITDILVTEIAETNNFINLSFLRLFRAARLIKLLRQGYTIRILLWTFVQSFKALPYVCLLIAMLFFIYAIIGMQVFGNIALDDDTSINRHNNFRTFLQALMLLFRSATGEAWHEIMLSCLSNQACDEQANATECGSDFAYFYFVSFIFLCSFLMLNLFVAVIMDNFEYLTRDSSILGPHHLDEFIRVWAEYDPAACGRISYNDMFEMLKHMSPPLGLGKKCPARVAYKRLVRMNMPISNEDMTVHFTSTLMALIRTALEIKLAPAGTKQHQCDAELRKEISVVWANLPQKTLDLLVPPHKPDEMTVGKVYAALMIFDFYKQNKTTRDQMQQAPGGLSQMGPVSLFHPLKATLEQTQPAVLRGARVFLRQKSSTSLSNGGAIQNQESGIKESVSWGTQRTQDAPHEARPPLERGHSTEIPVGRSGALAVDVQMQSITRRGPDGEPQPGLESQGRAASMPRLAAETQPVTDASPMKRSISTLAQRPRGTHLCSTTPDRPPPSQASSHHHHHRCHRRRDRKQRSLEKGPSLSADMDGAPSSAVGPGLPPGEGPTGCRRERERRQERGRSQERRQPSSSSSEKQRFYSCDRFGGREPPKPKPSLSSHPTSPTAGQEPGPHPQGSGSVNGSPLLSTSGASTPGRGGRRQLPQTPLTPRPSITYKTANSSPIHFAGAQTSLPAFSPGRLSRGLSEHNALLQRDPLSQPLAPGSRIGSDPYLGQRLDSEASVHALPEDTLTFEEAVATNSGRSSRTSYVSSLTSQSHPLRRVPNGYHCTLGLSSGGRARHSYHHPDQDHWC
T1 sequence (P54284 whole entry partner): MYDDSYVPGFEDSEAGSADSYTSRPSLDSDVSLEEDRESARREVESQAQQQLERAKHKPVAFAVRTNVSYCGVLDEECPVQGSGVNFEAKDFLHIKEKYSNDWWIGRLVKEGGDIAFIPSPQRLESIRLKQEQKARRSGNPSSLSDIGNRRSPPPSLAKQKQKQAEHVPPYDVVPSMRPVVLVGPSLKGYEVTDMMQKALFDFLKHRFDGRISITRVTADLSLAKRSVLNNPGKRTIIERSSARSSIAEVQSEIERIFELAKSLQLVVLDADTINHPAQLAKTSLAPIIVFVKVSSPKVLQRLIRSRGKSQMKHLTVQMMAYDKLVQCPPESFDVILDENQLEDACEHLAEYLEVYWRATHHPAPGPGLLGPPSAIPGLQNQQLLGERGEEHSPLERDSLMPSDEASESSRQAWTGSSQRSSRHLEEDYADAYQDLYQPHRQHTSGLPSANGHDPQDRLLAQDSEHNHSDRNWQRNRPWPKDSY
T1 sequence (P54289 25-956 partner limits assumed): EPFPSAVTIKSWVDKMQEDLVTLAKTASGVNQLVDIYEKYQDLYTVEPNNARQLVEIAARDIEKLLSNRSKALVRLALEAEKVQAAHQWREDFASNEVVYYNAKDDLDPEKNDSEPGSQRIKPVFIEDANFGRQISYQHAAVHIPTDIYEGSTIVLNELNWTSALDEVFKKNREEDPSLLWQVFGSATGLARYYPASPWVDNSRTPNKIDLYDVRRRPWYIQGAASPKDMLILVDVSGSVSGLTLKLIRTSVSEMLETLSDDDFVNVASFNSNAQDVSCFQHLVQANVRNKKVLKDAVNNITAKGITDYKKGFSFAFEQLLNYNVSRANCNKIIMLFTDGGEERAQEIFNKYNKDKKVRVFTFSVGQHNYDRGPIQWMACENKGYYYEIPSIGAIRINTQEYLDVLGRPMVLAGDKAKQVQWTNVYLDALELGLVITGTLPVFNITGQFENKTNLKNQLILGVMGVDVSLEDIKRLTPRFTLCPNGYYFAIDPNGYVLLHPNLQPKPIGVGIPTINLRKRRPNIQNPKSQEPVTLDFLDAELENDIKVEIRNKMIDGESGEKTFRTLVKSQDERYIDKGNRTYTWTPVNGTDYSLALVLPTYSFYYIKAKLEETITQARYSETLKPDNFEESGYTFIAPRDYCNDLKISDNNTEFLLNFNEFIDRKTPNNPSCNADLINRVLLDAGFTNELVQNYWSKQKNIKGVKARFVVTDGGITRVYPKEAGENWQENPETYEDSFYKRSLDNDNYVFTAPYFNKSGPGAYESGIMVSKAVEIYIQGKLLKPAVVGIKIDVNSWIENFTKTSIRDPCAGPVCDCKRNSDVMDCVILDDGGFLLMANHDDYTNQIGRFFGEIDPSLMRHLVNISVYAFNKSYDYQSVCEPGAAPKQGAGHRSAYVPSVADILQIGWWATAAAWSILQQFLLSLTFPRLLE
T1 sequence (P54289 957-1103 partner limits assumed): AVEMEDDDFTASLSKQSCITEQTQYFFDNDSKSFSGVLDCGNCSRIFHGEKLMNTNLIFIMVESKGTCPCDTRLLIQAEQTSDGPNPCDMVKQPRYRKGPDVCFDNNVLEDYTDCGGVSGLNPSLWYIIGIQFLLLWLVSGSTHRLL

Broadly, the IC50 is the concentration at which inhibition is half-maximal. With `CC(C)N(Cc1ccccc1)C(=O)c1cnc(Nc2ccc(F)cc2)nc1-c1ccccc1F` [compound 181], the IC50 in test [1], in test [2] and in test [3] was more than 10 µM each time.

Turning to `O=C(c1cnc(N2CCSCC2)nc1-c1ccccc1F)N(Cc1ccc2c(c1)CCO2)C1CC1` [compound 30], the IC50 is 2 to 10 µM in test [1], more than 10 µM in test [2] and 2 to 10 µM in test [3].

Turning to `CC(C)N(C(=O)c1cnc(N2CCOCC2)nc1-c1ccccc1F)c1cccc(C#N)c1` [compound 202], the IC50 in test [1], in test [2] and in test [3] was more than 10 µM each time.

In the case of `CCN(CCOC)c1ncc(C(=O)N(Cc2cccc(OC)c2)C(C)C)c(-c2ccccc2F)n1` [compound 103], the results for the IC50 in test [1], in test [2] and in test [3] were less than 2 µM, more than 10 µM and less than 2 µM, respectively.

Take `CC(C)N(C(=O)c1cnc(N2CCOCC2)nc1-c1ccccc1F)c1ccccc1` [compound 88]: the figures for the IC50 in test [1], in test [2] and in test [3] were 2 to 10 µM, more than 10 µM and more than 10 µM, respectively.

In the case of `Cc1nc(N2CCOCC2)nc(-c2ccccc2F)c1C(=O)N(Cc1ccc(C(C)(C)C)cc1)C(C)C` [compound 31], the IC50 in test [1] was 2 to 10 µM; in test [2], more than 10 µM; in test [3], 2 to 10 µM.

For the molecule `O=C(c1cnc(N2CCSCC2)nc1-c1ccccc1F)N(Cc1ccccc1)C1CCCCC1` [compound 47], the IC50 in test [1] was 2 to 10 µM; in test [2] it was more than 10 µM; in test [3], 2 to 10 µM.

For `CC(C)N(C(=O)c1cnc(N2CCCCC2)nc1-c1ccccc1F)c1cccc(C#N)c1` [compound 125], the IC50 in test [1] is 2 to 10 µM; in test [2] it was more than 10 µM; in test [3], more than 10 µM.

`CC(C)N(C(=O)c1cnc(N2CCC3CCCCC3C2)nc1-c1ccccc1F)c1ccccc1` (stereo not drawn) [compound 105]: the results for the IC50 in test [1], in test [2] and in test [3] were 2 to 10 µM, more than 10 µM and 2 to 10 µM, respectively.

On to `CC(C)N(Cc1ccccc1)C(=O)c1cnc(Nc2nc3ccccc3[nH]2)nc1-c1ccccc1F` [compound 106], for which the IC50 in test [1], in test [2] and in test [3] was more than 10 µM each time.

In the case of `O=C(c1cnc(N2CCOCC2)nc1-c1ccccc1F)N1CCCC(c2ccc(F)cc2)C1` (stereo not drawn) [compound 191], the IC50 in test [1], in test [2] and in test [3] was more than 10 µM in each case.

Consider `COc1cccc(N(C(=O)c2cnc(N3CCC4CCCCC4C3)nc2-c2ccccc2F)C2CCCC2)c1` (stereo not drawn) [compound 154], for which the IC50 is 2 to 10 µM in test [1], more than 10 µM in test [2] and more than 10 µM in test [3].

Turning to `COc1ccc(N(C(=O)c2cnc(N3CCCCC3)nc2-c2ccccc2Cl)C(C)C)cc1` [compound 43], the IC50 was 2 to 10 µM in test [1], more than 10 µM in test [2] and 2 to 10 µM in test [3].

`CC(C)N(Cc1ccccc1)C(=O)c1cnc(N2CCOCC2)nc1-c1ccc(F)c(F)c1` [compound 16]: the IC50 in test [1], in test [2] and in test [3] was more than 10 µM throughout.

As for `CC(C)N(Cc1ccc(N2CCCC2)cc1)C(=O)c1cnc(N2CCCCC2)nc1-c1ccccc1Cl` [compound 198], the IC50 is 2 to 10 µM in test [1], more than 10 µM in test [2] and more than 10 µM in test [3].

Turning to `CC(C)N(C(=O)c1cnc(N2CCCCC2)nc1-c1ccccc1Cl)c1ccccc1` [compound 82], the IC50 in test [1] was 2 to 10 µM; in test [2] it was more than 10 µM; in test [3] it was more than 10 µM.

Turning to `COc1cccc(N(C(=O)c2cnc(N3CCCCC3)nc2-c2ccccc2F)C2CCCCC2)c1` [compound 127], the values for the IC50 in test [1], in test [2] and in test [3] were 2 to 10 µM, more than 10 µM and 2 to 10 µM, respectively.

As for `Cc1nc(N2CCCCC2)nc(-c2ccccc2F)c1C(=O)N(Cc1ccc(C(C)(C)C)cc1)C(C)C` [compound 32], the values for the IC50 in test [1], in test [2] and in test [3] were 2 to 10 µM, more than 10 µM and 2 to 10 µM, respectively.

Values taken from patent US8546414B2, “Ion channel modulators and methods of use” (Vertex Pharmaceuticals Incorporated, priority 2004, dated 2013).
